From patent US9938273B2 (Plexxikon Inc., priority 2015, dated 2018)

Assays:
FLT3-D835Y = biological target: T1, FLT3-D835Y (Homo sapiens, UniProt P36888, D835Y); experiment: AlphaScreen kinase assay with recombinant enzyme, FLT3-D835Y; format: biochemical; settings: 8pt, GMean
T1 construct: purchased Invitrogen PV3967
T1 sequence (P36888 27-993 D835Y): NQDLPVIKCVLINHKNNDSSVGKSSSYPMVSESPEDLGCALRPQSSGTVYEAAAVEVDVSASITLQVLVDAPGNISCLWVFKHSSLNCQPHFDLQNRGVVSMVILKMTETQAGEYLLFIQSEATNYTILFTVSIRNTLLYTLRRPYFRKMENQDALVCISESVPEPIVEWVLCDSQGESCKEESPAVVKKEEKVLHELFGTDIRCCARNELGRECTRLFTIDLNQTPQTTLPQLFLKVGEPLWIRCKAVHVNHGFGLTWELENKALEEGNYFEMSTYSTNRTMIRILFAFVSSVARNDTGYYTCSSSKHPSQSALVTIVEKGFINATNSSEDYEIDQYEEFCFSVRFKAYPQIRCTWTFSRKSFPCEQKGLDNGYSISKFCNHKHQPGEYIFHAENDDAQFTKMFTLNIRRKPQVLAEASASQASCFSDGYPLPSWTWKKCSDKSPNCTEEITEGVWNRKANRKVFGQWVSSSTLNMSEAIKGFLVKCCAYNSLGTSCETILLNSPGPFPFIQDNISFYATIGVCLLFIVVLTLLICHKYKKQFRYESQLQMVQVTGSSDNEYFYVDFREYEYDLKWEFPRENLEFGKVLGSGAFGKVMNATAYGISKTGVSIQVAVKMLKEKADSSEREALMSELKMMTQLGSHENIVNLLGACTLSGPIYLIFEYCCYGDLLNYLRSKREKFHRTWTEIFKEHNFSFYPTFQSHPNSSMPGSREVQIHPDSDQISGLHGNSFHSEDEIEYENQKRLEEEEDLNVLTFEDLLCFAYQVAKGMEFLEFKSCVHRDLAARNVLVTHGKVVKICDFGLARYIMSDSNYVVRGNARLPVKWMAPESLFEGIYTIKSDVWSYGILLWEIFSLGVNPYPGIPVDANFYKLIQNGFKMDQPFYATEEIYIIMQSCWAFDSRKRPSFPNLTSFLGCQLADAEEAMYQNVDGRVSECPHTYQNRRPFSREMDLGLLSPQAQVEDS
Procedure, shortened: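 Read-out: AlphaScreen proximity signal at 580 nm (680 nm excitation), lost as peptide tyrosine phosphorylation falls. Substrate Biotin-GG(EEEEY)10EE at 30 nM; IC50 runs at 10 μM (FLT3 mutants) or 100 μM (c-KIT) final. Donor beads 20 min, then acceptor beads 60 min, room temperature.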

[1] = tested on: MOLM-14 D835Y cells, FLT3 ITD and FLT3 D835Y; experiment: Cell proliferation assay (CellTiter-Glo), MOLM-14 D835Y; format: cell-based; settings: Homo sapiens, 72 h, 3d-Growth, GMean
Procedure, shortened: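 Three-day growth at 37 °C, 5% CO2 under compound (1 μM top final, 1:3 dilutions, eight points, 0.2% DMSO), read as ATP luminescence by CellTiter-Glo for IC50. Cells: MOLM-14 with FLT3 ITD plus D835Y or F691L, and IL-3-deprived Ba/F3 transfected with FLT3 ITD/D835Y, 1×10^4 per well.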

Structure (SMILES)	IC50 (FLT3-D835Y) [µM]	IC50 [1] [µM]
N#CCCNC(=O)c1cccc(-c2cnc3[nH]c(-c4ccccc4)c(Br)c3c2)n1 [Compound P-0147, 6-(3-bromo-2-phenyl-1H-pyrrolo[2,3-b]pyridin-5-yl)-N-(2-cyanoethyl)pyridine-2-carboxamide]	0.0001 to 10	0.0001 to 10
N#C[C@H]1CCN(C(=O)c2cccc(-c3cnc4[nH]c(-c5ccccc5)cc4c3)n2)C1 [Compound P-0117, (3S)-1-[6-(2-phenyl-1H-pyrrolo[2,3-b]pyridin-5-yl)pyridine-2-carbonyl]pyrrolidine-3-carbonitrile]	0.0001 to 10	0.0001 to 10
CC1(C)CC=C(c2cc3cc(-c4cccc(C(=O)N5CCC(C#N)C5)n4)cnc3[nH]2)CC1 (stereo not shown) [Compound P-0131, 1-[6-[2-(4,4-dimethylcyclohexen-1-yl)-1H-pyrrolo[2,3-b]pyridin-5-yl]pyridine-2-carbonyl]pyrrolidine-3-carbonitrile]	0.0001 to 10	0.0001 to 10
CC(C)(C#N)CNC(=O)c1cccc(-c2cnc3[nH]c(-c4cnn(C(F)F)c4)cc3c2)n1 [Compound P-0153, N-(2-cyano-2-methyl-propyl)-6-[2-[1-(difluoromethyl)pyrazol-4-yl]-1H-pyrrolo[2,3-b]pyridin-5-yl]pyridine-2-carboxamide]	0.0001 to 10	0.0001 to 10
N#CC1CCN(C(=O)c2cccc(-c3cnc4[nH]c(C5=CCCCC5)cc4c3)n2)C1 (stereo not shown) [Compound P-0120, 1-[6-[2-(cyclohexen-1-yl)-1H-pyrrolo[2,3-b]pyridin-5-yl]pyridine-2-carbonyl]pyrrolidine-3-carbonitrile]	0.0001 to 10	0.0001 to 10
Cc1nn(C(C)C)cc1-c1cc2cc(-c3cccc(C(=O)NC(C)(C)C#N)n3)cnc2[nH]1 [Compound P-0178, N-(1-cyano-1-methyl-ethyl)-6-[2-(1-isopropyl-3-methyl-pyrazol-4-yl)-1H-pyrrolo[2,3-b]pyridin-5-yl]pyridine-2-carboxamide]	0.0001 to 10	0.0001 to 10
N#CC1(F)CCN(C(=O)c2cccc(-c3cnc4[nH]c(-c5ccccc5)cc4c3)n2)C1 (stereo not shown) [Compound P-0115, 3-fluoro-1-[6-(2-phenyl-1H-pyrrolo[2,3-b]pyridin-5-yl)pyridine-2-carbonyl]pyrrolidine-3-carbonitrile]	0.0001 to 10	0.0001 to 10
N#CC1(NC(=O)c2cccc(-c3cnc4[nH]c(-c5ccccc5)cc4c3)n2)CCCC1 [Compound P-0146, N-(1-cyanocyclopentyl)-6-(2-phenyl-1H-pyrrolo[2,3-b]pyridin-5-yl)pyridine-2-carboxamide]	0.0001 to 10	0.0001 to 10
CC(C)(C#N)NC(=O)c1cccc(-c2cnc3[nH]c(-c4cn[nH]c4)cc3c2)n1 [Compound P-0183, N-(1-cyano-1-methyl-ethyl)-6-[2-(1H-pyrazol-4-yl)-1H-pyrrolo[2,3-b]pyridin-5-yl]pyridine-2-carboxamide]	0.0001 to 10	0.0001 to 10
CC(C)(C#N)CNC(=O)c1cccc(-c2cnc3[nH]c(C4=CCSCC4)cc3c2)n1 [Compound P-0159, N-(2-cyano-2-methyl-propyl)-6-[2-(3,6-dihydro-2H-thiopyran-4-yl)-1H-pyrrolo[2,3-b]pyridin-5-yl]pyridine-2-carboxamide]	0.0001 to 10	0.0001 to 10
N#CC1CCN(S(=O)(=O)c2cccc(-c3cnc4[nH]c(-c5ccccc5)cc4c3)n2)C1 (stereo not shown) [Compound P-0121, 1-[[6-(2-phenyl-1H-pyrrolo[2,3-b]pyridin-5-yl)-2-pyridyl]sulfonyl]pyrrolidine-3-carbonitrile]	0.0001 to 10	0.0001 to 10
C#Cc1cc2cc(-c3cccc(C(=O)NC(C)(C)C#N)n3)cnc2[nH]1 [Compound P-0175, N-(1-cyano-1-methyl-ethyl)-6-(2-ethynyl-1H-pyrrolo[2,3-b]pyridin-5-yl)pyridine-2-carboxamide]	0.0001 to 10	0.0001 to 10
Cn1cncc1C#Cc1cc2cc(-c3cccc(C(=O)NC(C)(C)C#N)n3)cnc2[nH]1 [Compound P-0177, N-(1-cyano-1-methyl-ethyl)-6-[2-[2-(3-methylimidazol-4-yl)ethynyl]-1H-pyrrolo[2,3-b]pyridin-5-yl]pyridine-2-carboxamide]	0.0001 to 10	0.0001 to 10
CC(C)(C#N)NC(=O)c1cccc(-c2cnc3[nH]c(-c4cnn(C(F)F)c4)cc3c2)n1 [Compound P-0164, N-(2-cyanopropan-2-yl)-6-(2-(1-(difluoromethyl)-1H-pyrazol-4-yl)-1H-pyrrolo[2,3-b]pyridin-5-yl)picolinamide]	0.0001 to 10	0.0001 to 10
CC(C)(C#N)CNC(=O)c1cccc(-c2cnc3[nH]c(C4=CCCCC4)cc3c2)n1 [Compound P-0123, N-(2-cyano-2-methyl-propyl)-6-[2-(cyclohexen-1-yl)-1H-pyrrolo[2,3-b]pyridin-5-yl]pyridine-2-carboxamide]	0.0001 to 10	0.0001 to 10
CC(C)(C#N)CNC(=O)c1cccc(-c2cnc3[nH]c(-c4ccccc4)c(Cl)c3c2)n1 [Compound P-0138, 6-(3-chloro-2-phenyl-1H-pyrrolo[2,3-b]pyridin-5-yl)-N-(2-cyano-2-methyl-propyl)pyridine-2-carboxamide]	0.0001 to 10	0.0001 to 10
N#CC1(NC(=O)c2cccc(-c3cnc4[nH]c(-c5ccccc5)cc4c3)n2)CCC1 [Compound P-0114, N-(1-cyanocyclobutyl)-6-(2-phenyl-1H-pyrrolo[2,3-b]pyridin-5-yl)pyridine-2-carboxamide]	0.0001 to 10	0.0001 to 10
